Legend:
[1] = tested on: T-Rex 293 cell line SC3 cells having increased expression of androgen receptor protein due to exposure to doxycycline; assay: Cellular growth inhibition, T-Rex 293 SC3 cells with doxycycline (androgen receptor induced), CellTiter-Glo; assay type: cell-based; conditions: 72 h, T-Rex 293 SC3 cells with 10 ng/mL doxycycline (increased androgen receptor expression)
In short: (§1)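 SC3 is a T-Rex 293 clone stably transfected with wild-type androgen receptor in pcDNA4/TO, inducible by 10 ng/mL doxycycline. Cells were grown in phenol red-free DMEM with 10% charcoal-dextran FBS, with or without doxycycline, dosed 24 h after seeding (0.5% DMSO) for 72 h. Viability was read by CellTiter-Glo 2.0 luminescence and GI50 obtained from four-parameter fits.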

[2] = tested on: T-Rex 293 cell line SC3 cells lacking increased expression of androgen receptor protein; assay: Cellular growth inhibition, T-Rex 293 SC3 cells without doxycycline, CellTiter-Glo; assay type: cell-based; conditions: 72 h, T-Rex 293 SC3 cells not exposed to doxycycline, CellTiter-Glo 2.0
In short: as §1

[3] = tested on: VCaP cells; assay: Cellular growth inhibition assay for VCaP cells, CellTiter-Glo; assay type: cell-based, human; conditions: Homo sapiens, VCaP, 72 h, 72 hours treatment, CellTiter-Glo 2.0
In short: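 GI50 values come from four-parameter curve fits of luminescence data normalized to a zero baseline. Compound, in medium with 0.5% DMSO, was added one day after plating and left for 72 h before CellTiter-Glo 2.0 addition.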

[4] = tested on: T47D cells; assay: Cellular growth inhibition assay for T47D cells, CellTiter-Glo; assay type: cell-based, human; conditions: Homo sapiens, T47D, 72 h, 72 hours treatment, CellTiter-Glo 2.0 cell viability
In short: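 Cells are plated at 3000/well and allowed 24 h before treatment. Test compound in medium containing 0.5% DMSO is then added, with DMSO-only wells as negative control, and plates are incubated 72 h at 37 °C. ATP luminescence (CellTiter-Glo 2.0) is then fitted to four parameters to derive GI50.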

For `Cc1sc2c(c1C)C(c1ccc([C@H]3CC[C@]4(C3)CN(c3ncc(C(=O)N[C@H]5C(C)(C)[C@H](Oc6ccc(C#N)c(Cl)c6)C5(C)C)cn3)CCO4)cc1)=N[C@@H](Cc1ncco1)c1nnc(C)n1-2` [Compound I-404], the GI50 [1] was > 3 µM, the GI50 [2] was > 3 µM and the GI50 [3] was > 3 µM. For the same compound, the GI50 [4] was > 3 µM.
In the case of `Cc1sc2c(c1C)C(c1ccc([C@@H]3CC[C@]4(C3)CN(c3ncc(C(=O)N[C@H]5C(C)(C)[C@H](Oc6ccc(C#N)c(Cl)c6)C5(C)C)cn3)CCO4)cc1)=N[C@@H](Cc1ncco1)c1nnc(C)n1-2` [Compound I-405], the GI50 [1] is reported as < 0.5 µM, the GI50 [2] is reported as 0.5 to 1.5 µM and the GI50 [3] is reported as < 0.5 µM. The GI50 [4] was < 0.5 µM.
With `Cc1sc2c(c1C)C(c1ccc([C@@H]3CC[C@@]4(C3)CN(c3ncc(C(=O)N[C@H]5C(C)(C)[C@H](Oc6ccc(C#N)c(Cl)c6)C5(C)C)cn3)CCO4)cc1)=N[C@@H](Cc1ncco1)c1nnc(C)n1-2` [Compound I-406] the GI50 [1] was < 0.5 µM, the GI50 [2] was > 3 µM and the GI50 [3] was < 0.5 µM. The GI50 [4] was < 0.5 µM.
With `Cc1sc2c(c1C)C(c1ccc(-c3nnc(OC4CCN(c5ncc(C(=O)N[C@H]6C(C)(C)[C@H](Oc7ccc(C#N)c(Cl)c7)C6(C)C)cn5)CC4)s3)cc1)=N[C@@H](Cc1ncco1)c1nnc(C)n1-2` [Compound I-407] the GI50 [1] was < 0.5 µM, the GI50 [2] was < 0.5 µM and the GI50 [3] was < 0.5 µM. The GI50 [4] was < 0.5 µM.
For `Cc1sc2c(c1C)C(c1ccc(-c3csc(OC4CCN(c5ncc(C(=O)N[C@H]6C(C)(C)[C@H](Oc7ccc(C#N)c(Cl)c7)C6(C)C)cn5)CC4)n3)cc1)=N[C@@H](Cc1ncco1)c1nnc(C)n1-2` [Compound I-408], the GI50 [1] was < 0.5 µM, the GI50 [2] was > 3 µM and the GI50 [3] was 0.5 to 1.5 µM. For the same compound, the GI50 [4] was < 0.5 µM.
With `Cc1sc2c(c1C)C(c1ccc(-c3ccc(OC4CCN(c5ncc(C(=O)N[C@H]6C(C)(C)[C@H](Oc7ccc(C#N)c(Cl)c7)C6(C)C)cn5)CC4)s3)cc1)=N[C@@H](Cc1ncco1)c1nnc(C)n1-2` [Compound I-409] the GI50 [1] was < 0.5 µM, the GI50 [2] was > 3 µM and the GI50 [3] was > 3 µM. The GI50 [4] was < 0.5 µM.
In the case of `Cc1sc2c(c1C)C(c1ccc(O[C@H]3C[C@]4(CCCN(c5ncc(C(=O)N[C@H]6C(C)(C)[C@H](Oc7ccc(C#N)c(Cl)c7)C6(C)C)cn5)C4)C3)cc1)=N[C@@H](C)c1nnc(C)n1-2` [Compound I-410], the GI50 [1] is reported as < 0.5 µM, the GI50 [2] is reported as > 3 µM and the GI50 [3] is reported as > 3 µM. The GI50 [4] was > 3 µM.
`Cc1sc2c(c1C)C(c1ccc(OC3CC4(C3)CC3(CCN(c5ncc(C(=O)N[C@H]6C(C)(C)[C@H](Oc7ccc(C#N)c(Cl)c7)C6(C)C)cn5)CC3)C4)cc1)=N[C@@H](C)c1nnc(C)n1-2` [Compound I-411] was tested, and the GI50 [1] was < 0.5 µM, the GI50 [2] was > 3 µM and the GI50 [3] was < 0.5 µM. It also gave a GI50 [4] of 0.5 to 1.5 µM.
With `Cc1sc2c(c1C)C(c1ccc(OC3CC4(C3)CC3(CCN(c5cnc(C(=O)N[C@H]6C(C)(C)[C@H](Oc7ccc(C#N)c(Cl)c7)C6(C)C)cn5)CC3)C4)cc1)=N[C@@H](C)c1nnc(C)n1-2` [Compound I-412] the GI50 [1] was > 3 µM, the GI50 [2] was > 3 µM and the GI50 [3] was > 3 µM. The GI50 [4] was < 0.5 µM.
With `Cc1sc2c(c1C)C(c1ccc([C@H]3C[C@@H]([C@@H]4CCN(c5ncc(C(=O)N[C@H]6C(C)(C)[C@H](Oc7ccc(C#N)c(Cl)c7)C6(C)C)cn5)C4)C3)cc1)=N[C@@H](Cc1ncco1)c1nnc(C)n1-2` [Compound I-413] the GI50 [1] was > 3 µM, the GI50 [2] was > 3 µM and the GI50 [3] was > 3 µM. The GI50 [4] was > 3 µM.
With `Cc1sc2c(c1C)C(c1ccc([C@H]3C[C@H]([C@@H]4CCN(c5ncc(C(=O)N[C@H]6C(C)(C)[C@H](Oc7ccc(C#N)c(Cl)c7)C6(C)C)cn5)C4)C3)cc1)=N[C@@H](Cc1ncco1)c1nnc(C)n1-2` [Compound I-414] the GI50 [1] was > 3 µM, the GI50 [2] was > 3 µM and the GI50 [3] was > 3 µM. For the same compound, the GI50 [4] was > 3 µM.
With `Cc1sc2c(c1C)C(c1ccc([C@H]3C[C@@H]([C@H]4CCN(c5ncc(C(=O)N[C@H]6C(C)(C)[C@H](Oc7ccc(C#N)c(Cl)c7)C6(C)C)cn5)C4)C3)cc1)=N[C@@H](Cc1ncco1)c1nnc(C)n1-2` [Compound I-415] the GI50 [1] was > 3 µM, the GI50 [2] was > 3 µM and the GI50 [3] was > 3 µM. For the same compound, the GI50 [4] was > 3 µM.

Source: US20260062422A1 (Halda Therapeutics OpCo, Inc., priority 2022, published 2026)
